We go through eight compounds from US6825230B2, “Spiro and dispiro 1,2,4-trixolane antimalarials” (Medicines for Malaria Venture MMV, priority 2002, dated 2004).

Each structure is given as a SMILES string. In brackets after ≈: the same amount, converted by molar mass. Read-outs that look alike come from different tables or passages of the source.

Assay [1] relates to ANKA strain of P. berghei. As to the kind of experiment: Single dose STI in vivo screen in infected mice. Further details: species or system Plasmodium berghei. The conditions noted are these: for Survival (days) 3 mg/kg SSV po / Activity (%) 3 mg/kg SSV po: single 3 mg/kg po in SSV; for Activity (%) 3 mg/kg SSV po / Activity (%) 10 mg/kg po / Activity (%) 10 mg/kg SSV po / Activity (%) 10 mg/kg sc: percent reduction in parasitemia on day 3; for Survival (days) 10 mg/kg SSV po: single 10 mg/kg po in SSV; for Survival (days) 10 mg/kg SSV po / Survival (days) 10 mg/kg po / Survival (days) 10 mg/kg sc: untreated 6-7 days; for Survival (days) 10 mg/kg po: single 10 mg/kg po in 3% ethanol and 7% Tween 80; for Activity (%) 10 mg/kg po: single 10 mg/kg po in 3% ethanol and 7% Tween 80 on day 1 post-infection; for Activity (%) 10 mg/kg SSV po: single 10 mg/kg po in standard suspending vehicle (SSV) on day 1 post-infection; for Survival (days) 10 mg/kg sc: single 10 mg/kg sc in 3% ethanol and 7% Tween 80; for Activity (%) 10 mg/kg sc: single 10 mg/kg sc in 3% ethanol and 7% Tween 80 on day 1 post-infection.

Assay [2] deals with chloroquine-resistant K1 strain of P. falciparum. As to the kind of experiment: In vitro antimalarial semiautomated microdilution assay ([3H]-hypoxanthine incorporation), K1 strain. Format: cell-based, Plasmodium falciparum. Conditions: Plasmodium falciparum. The method, boiled down: (§1)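 IC50 values come from Logit regression of [3H]-hypoxanthine uptake data. Parasites were intraerythrocytic P. falciparum forms taken from asynchronous stock cultures and tested by semiautomated microdilution.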

Assay [3] has as its system chloroquine-sensitive NF54 strain of P. falciparum. As to the kind of experiment: In vitro antimalarial semiautomated microdilution assay ([3H]-hypoxanthine incorporation), NF54 strain. It counts as cell-based, Plasmodium falciparum. The conditions noted are these: Plasmodium falciparum. In a few lines: as §1
The mark [4] stands for this setting: K1, 72 h, read-out: IC50 (ng/ml) K1, chloroquine-resistant K1 strain, 72 h incubation.
The mark [5] stands for this setting: NF54, 72 h, read-out: IC50 (ng/ml) NF54, chloroquine-sensitive NF54 strain, 72 h incubation.
[6] abbreviates: chloroquine-resistant K1 strain, 72 h incubation, read-out: IC50 (ng/ml) K1.
Where [7] appears, read: chloroquine-sensitive NF54 strain, 72 h incubation, read-out: IC50 (ng/ml) NF54.

In the case of `O=C(C[C@H]1CC[C@]2(CC1)OO[C@]1(O2)C2CC3CC(C2)CC1C3)NCCN1CCOCC1` [OZ313], in assay [1], the “Survival (days) 3 mg/kg SSV po” value worked out at 7.4 days, the “Activity (%) 3 mg/kg SSV po” value came out at 58% and the “Survival (days) 10 mg/kg SSV po” value is on record as 10.4 days. Moreover, the IC50 in assay [2] (setting [4]) was found to be 0.55 ng/mL (≈ 0.00127 µM). Also, the IC50 in assay [3] (setting [5]) came to 0.76 ng/mL (≈ 0.00175 µM).

For the compound `CS(=O)(=O)NC[C@H]1CC[C@]2(CC1)OOC1(O2)C2CC3CC(C2)CC1C3` (some centres unmarked) [OZ257], in assay [1], the “Survival (days) 10 mg/kg po” value is listed as 8.3 days, the “Activity (%) 10 mg/kg po” value is 99.00%, the “Survival (days) 10 mg/kg SSV po” value turned out to be 7.7 days and the “Activity (%) 10 mg/kg SSV po” value was 99.49%. Further, in assay [1], the “Survival (days) 10 mg/kg sc” value came to 9.7 days and the “Activity (%) 10 mg/kg sc” value is on record as 99.84%. Further, the IC50 in assay [2] (setting [6]) turned out to be 42 ng/mL (≈ 0.113 µM). The IC50 in assay [3] (setting [7]) is 21 ng/mL (≈ 0.0565 µM).

In the case of `CC(C)(CO)NC(=O)[C@H]1CC[C@]2(CC1)OOC1(O2)C2CC3CC(C2)CC1C3` (some centres unmarked) [OZ129], in assay [1], the “Survival (days) 10 mg/kg po” value worked out at 5.3 days, the “Activity (%) 10 mg/kg po” value is listed as 0%, the “Survival (days) 10 mg/kg SSV po” value was determined as 5.7 days and the “Activity (%) 10 mg/kg SSV po” value worked out at 4%. In assay [1], the “Survival (days) 10 mg/kg sc” value was found to be 5.7 days and the “Activity (%) 10 mg/kg sc” value was 0%. In assay [2] (setting [4]), the IC50 stood at 10 ng/mL (≈ 0.0264 µM). Moreover, in assay [3] (setting [5]), the IC50 is over 10 ng/mL.

Regarding `O=C(C[C@H]1CC[C@]2(CC1)OO[C@]1(O2)C2CC3CC(C2)CC1C3)N1CCC(O)CC1` [OZ297], in assay [1], the “Survival (days) 3 mg/kg SSV po” value worked out at 7.6 days, the “Activity (%) 3 mg/kg SSV po” value was 83%, the “Survival (days) 10 mg/kg SSV po” value came out at 9.8 days and the “Activity (%) 10 mg/kg SSV po” value amounted to 99.69%. In addition, the IC50 in assay [2] (setting [6]) was 0.49 ng/mL (≈ 0.00121 µM). In assay [3] (setting [7]), the IC50 is 0.76 ng/mL (≈ 0.00187 µM).

On to `OCC1(CO)COC2(CCC3(CC2)OOC2(O3)C3CC4CC(C3)CC2C4)OC1` (centres unmarked) [OZ121, Adamantane-2-spiro-3′-11′,11′-bis(hydroxymethyl)-1′,2′,4′,9′,13′-pentaoxadispiro[4.2.5.2]pentadecane], for which, in assay [1], the “Survival (days) 10 mg/kg po” value is on record as 7.3 days, the “Activity (%) 10 mg/kg po” value is given as 91%, the “Survival (days) 10 mg/kg SSV po” value was 8.0 days and the “Activity (%) 10 mg/kg SSV po” value stood at 98%. In addition, in assay [1], the “Survival (days) 10 mg/kg sc” value came out at 7.3 days and the “Activity (%) 10 mg/kg sc” value is given as 99.61%. Further, the IC50 in assay [2] (setting [4]) came to 0.96 ng/mL (≈ 0.00242 µM). In addition, the IC50 in assay [3] (setting [5]) was 0.41 ng/mL (≈ 0.00103 µM).

For the compound `O=C(O)c1nccnc1C(=O)N1CCC2(CC1)OOC1(O2)C2CC3CC(C2)CC1C3` (centres unmarked) [OZ109, Adamantane-2-spiro-3′-8′-[(3′-carboxypyrazinyl)carbonyl]-1′,2′,4′-trioxa-8′-azaspiro[4.5]decane], in assay [1], the “Survival (days) 10 mg/kg po” value came to 5.7 days, the “Activity (%) 10 mg/kg po” value was 2%, the “Survival (days) 10 mg/kg SSV po” value was determined as 5.7 days and the “Activity (%) 10 mg/kg SSV po” value turned out to be 0%. Also, in assay [1], the “Survival (days) 10 mg/kg sc” value stood at 6.3 days and the “Activity (%) 10 mg/kg sc” value worked out at 24%. The IC50 in assay [2] (setting [4]) amounted to 21 ng/mL (≈ 0.0505 µM). In assay [3] (setting [5]), the IC50 was 24 ng/mL (≈ 0.0578 µM).

`COCC(=O)N[C@H]1CC[C@]2(CC1)OOC1(O2)C2CC3CC(C2)CC1C3` (some centres unmarked) [OZ186]: in assay [1], the “Survival (days) 10 mg/kg po” value is recorded as 8.0 days, the “Activity (%) 10 mg/kg po” value stood at 87%, the “Survival (days) 10 mg/kg SSV po” value was 9.0 days and the “Activity (%) 10 mg/kg SSV po” value was found to be 96%. In assay [1], the “Survival (days) 10 mg/kg sc” value stood at 8.0 days and the “Activity (%) 10 mg/kg sc” value came to 67%. In assay [2] (setting [4]), the IC50 was over 10 ng/mL. Also, the IC50 in assay [3] (setting [5]) was over 10 ng/mL.

Turning to `CCOC(=O)c1ccc(OC[C@H]2CC[C@]3(CC2)OOC2(O3)C3CC4CC(C3)CC2C4)cc1` (some centres unmarked) [OZ166], in assay [1], the “Survival (days) 10 mg/kg po” value is listed as 6.7 days, the “Activity (%) 10 mg/kg po” value amounted to 11%, the “Survival (days) 10 mg/kg SSV po” value turned out to be 6.3 days and the “Activity (%) 10 mg/kg SSV po” value came out at 0%. Further, in assay [1], the “Survival (days) 10 mg/kg sc” value amounted to 5.7 days and the “Activity (%) 10 mg/kg sc” value worked out at 4%. Further, in assay [2] (setting [4]), the IC50 is 28 ng/mL (≈ 0.0633 µM). In assay [3] (setting [5]), the IC50 is over 10 ng/mL.
